Experimental data published in the NIST ThermoML archive (doi:10.1016/j.tca.2014.06.031).
± gives the expanded uncertainty stated by the source.

Columns and labels:
[1] = refractive index (Na D-line) (dimensionless); details: 101.33 kPa, Liquid, Standard Abbe refractometry
[2] = Liquid; for speed of sound: Sing-around technique in a fixed-path interferometer; for mass density: Vibrating tube method
[3] = refractive index (Na D-line) (dimensionless); xn = mol fraction of the nth substance listed; details: 101 kPa, Liquid, Standard Abbe refractometry
[4] = xn = mol fraction of the nth substance listed; details: 101 kPa, Liquid; for speed of sound: Frequency=3 MHz, Sing-around technique in a fixed-path interferometer; for mass density: Vibrating tube method
[5] = 298.15 K, 101 kPa, Frequency=3 MHz

In the case of CCCC(=O)O [butanoic acid], the refractive index ([1]; 293.15 K) is reported as 1.39826 ± 0.00037, the refractive index ([1]; 298.15 K) is reported as 1.3963 ± 0.00037 and the refractive index ([1]; 303.15 K) is reported as 1.39421 ± 0.00037. It also gave a refractive index ([1]; 308.15 K) of 1.39217 ± 0.00037, a refractive index ([1]; 313.15 K) of 1.3901 ± 0.00037 and a speed of sound ([2]; 293.15 K, 101.33 kPa) of 1195.5 ± 1.5 m/s. The mass density ([2]; 293.15 K, 101.33 kPa) was 957.78 ± 0.24 kg/m3, the speed of sound ([2]; 298.15 K, 101.33 kPa) was 1176.9 ± 1.5 m/s and the mass density ([2]; 298.15 K, 101.33 kPa) was 952.81 ± 0.24 kg/m3. For the same compound, the speed of sound ([2]; 303.15 K, 101.33 kPa) was 1158.2 ± 1.5 m/s, the mass density ([2]; 303.15 K, 101.33 kPa) was 947.94 ± 0.24 kg/m3 and the speed of sound ([2]; 308.15 K, 101.33 kPa) was 1139.7 ± 1.5 m/s. It also gave a mass density ([2]; 308.15 K, 101.33 kPa) of 942.92 ± 0.24 kg/m3, a speed of sound ([2]; 313.15 K, 101.33 kPa) of 1121.3 ± 1.5 m/s and a mass density ([2]; 313.15 K, 101.33 kPa) of 938.05 ± 0.24 kg/m3.
CCCC(=O)O [butanoic acid] + CCCCC(=O)O gave a refractive index ([3]; 293.15 K, x1 = 1) of 1.39826 ± 0.00037, a refractive index ([3]; 298.15 K, x1 = 1) of 1.3963 ± 0.00037 and a refractive index ([3]; 303.15 K, x1 = 1) of 1.39421 ± 0.00037. For the same compound, the refractive index ([3]; 308.15 K, x1 = 1) was 1.39217 ± 0.00037, the refractive index ([3]; 313.15 K, x1 = 1) was 1.3901 ± 0.00037 and the speed of sound ([4]; 293.15 K, x1 = 1) was 1195.5 ± 1.5 m/s. For the same compound, the mass density ([4]; 293.15 K, x1 = 1) was 957.78 ± 0.23 kg/m3, the speed of sound ([4]; 298.15 K, x1 = 1) was 1176.9 ± 1.5 m/s and the mass density ([4]; 298.15 K, x1 = 1) was 952.81 ± 0.23 kg/m3. For the same compound, the speed of sound ([4]; 303.15 K, x1 = 1) was 1158.2 ± 1.5 m/s, the mass density ([4]; 303.15 K, x1 = 1) was 947.94 ± 0.24 kg/m3 and the speed of sound ([4]; 308.15 K, x1 = 1) was 1139.7 ± 1.5 m/s. It also gave a mass density ([4]; 308.15 K, x1 = 1) of 942.92 ± 0.24 kg/m3, a speed of sound ([4]; 313.15 K, x1 = 1) of 1121.3 ± 1.5 m/s and a mass density ([4]; 313.15 K, x1 = 1) of 938.05 ± 0.24 kg/m3.
CCOC(=O)OCC [diethyl carbonate] showed a refractive index ([1]; 298.15 K) of 1.38249 ± 0.00051, a speed of sound [2, 5] of 1176.6 ± 2.3 m/s and a mass density ([2]; 298.15 K, 101 kPa) of 969.32 ± 0.8 kg/m3.
CCOC(=O)OCC [diethyl carbonate] + CCO showed a refractive index ([3]; 298.15 K, x1 = 0.0415) of 1.36136 ± 0.00051, a refractive index ([3]; 298.15 K, x1 = 0.0943) of 1.36347 ± 0.00051 and a refractive index ([3]; 298.15 K, x1 = 0.1932) of 1.36698 ± 0.00051. It also gave a refractive index ([3]; 298.15 K, x1 = 0.2929) of 1.36981 ± 0.00051, a refractive index ([3]; 298.15 K, x1 = 0.3938) of 1.37241 ± 0.00051 and a refractive index ([3]; 298.15 K, x1 = 0.4965) of 1.3746 ± 0.00051. It also gave a refractive index ([3]; 298.15 K, x1 = 0.597) of 1.37647 ± 0.00051, a refractive index ([3]; 298.15 K, x1 = 0.6924) of 1.37805 ± 0.00051 and a refractive index ([3]; 298.15 K, x1 = 0.7911) of 1.37957 ± 0.00051. The refractive index ([3]; 298.15 K, x1 = 0.899) was 1.38109 ± 0.00051, the refractive index ([3]; 298.15 K, x1 = 0.9413) was 1.38167 ± 0.00051 and the refractive index ([3]; 298.15 K, x1 = 1) was 1.38249 ± 0.00051. For the same compound, the speed of sound ([4]; 298.15 K, x1 = 0.0415) was 1145.2 ± 2.3 m/s, the speed of sound ([4]; 298.15 K, x1 = 0.0943) was 1147.3 ± 2.3 m/s and the speed of sound ([4]; 298.15 K, x1 = 0.1932) was 1150.9 ± 2.3 m/s. For the same compound, the speed of sound ([4]; 298.15 K, x1 = 0.2929) was 1154 ± 2.3 m/s, the speed of sound ([4]; 298.15 K, x1 = 0.3938) was 1156.9 ± 2.3 m/s and the speed of sound ([4]; 298.15 K, x1 = 0.4965) was 1159.8 ± 2.3 m/s. For the same compound, the speed of sound ([4]; 298.15 K, x1 = 0.597) was 1162.8 ± 2.3 m/s, the speed of sound ([4]; 298.15 K, x1 = 0.6924) was 1166 ± 2.3 m/s and the speed of sound ([4]; 298.15 K, x1 = 0.7911) was 1169.7 ± 2.3 m/s. For the same compound, the speed of sound ([4]; 298.15 K, x1 = 0.899) was 1173.7 ± 2.3 m/s, the speed of sound ([4]; 298.15 K, x1 = 0.9413) was 1175 ± 2.3 m/s and the speed of sound ([4]; 298.15 K, x1 = 1) was 1176.6 ± 2.3 m/s. For the same compound, the mass density ([4]; 298.15 K, x1 = 0.0415) was 800.3 ± 0.71 kg/m3, the mass density ([4]; 298.15 K, x1 = 0.0943) was 817.71 ± 0.71 kg/m3 and the mass density ([4]; 298.15 K, x1 = 0.1932) was 845.85 ± 0.72 kg/m3. The mass density ([4]; 298.15 K, x1 = 0.2929) was 869.58 ± 0.73 kg/m3, the mass density ([4]; 298.15 K, x1 = 0.3938) was 889.96 ± 0.74 kg/m3 and the mass density ([4]; 298.15 K, x1 = 0.4965) was 907.82 ± 0.75 kg/m3. It also gave a mass density ([4]; 298.15 K, x1 = 0.597) of 922.99 ± 0.76 kg/m3, a mass density ([4]; 298.15 K, x1 = 0.6924) of 935.73 ± 0.77 kg/m3 and a mass density ([4]; 298.15 K, x1 = 0.7911) of 947.58 ± 0.79 kg/m3. The mass density ([4]; 298.15 K, x1 = 0.899) was 959.27 ± 0.8 kg/m3, the mass density ([4]; 298.15 K, x1 = 0.9413) was 963.58 ± 0.8 kg/m3 and the mass density ([4]; 298.15 K, x1 = 1) was 969.32 ± 0.8 kg/m3.
CCO [ethanol] showed a refractive index ([1]; 298.15 K) of 1.35945 ± 0.00051, a speed of sound [2, 5] of 1142.8 ± 2.3 m/s and a mass density ([2]; 298.15 K, 101 kPa) of 785.24 ± 0.61 kg/m3.
Work on CCO [ethanol] + CCOC(=O)OCC yielded a refractive index ([3]; 298.15 K, x2 = 0) of 1.35945 ± 0.00051, a speed of sound ([4]; 298.15 K, x2 = 0) of 1142.8 ± 2.3 m/s and a mass density ([4]; 298.15 K, x2 = 0) of 785.24 ± 0.61 kg/m3.
With CCCCCCC(=O)O [heptanoic acid] the refractive index ([1]; 293.15 K) was 1.42336 ± 0.00037, the refractive index ([1]; 298.15 K) was 1.42138 ± 0.00037 and the refractive index ([1]; 303.15 K) was 1.41935 ± 0.00037. For the same compound, the refractive index ([1]; 308.15 K) was 1.41733 ± 0.00037, the refractive index ([1]; 313.15 K) was 1.4153 ± 0.00037 and the speed of sound ([2]; 293.15 K, 101.33 kPa) was 1295.4 ± 1.5 m/s. It also gave a mass density ([2]; 293.15 K, 101.33 kPa) of 917.65 ± 0.24 kg/m3, a speed of sound ([2]; 298.15 K, 101.33 kPa) of 1277.7 ± 1.5 m/s and a mass density ([2]; 298.15 K, 101.33 kPa) of 913.47 ± 0.24 kg/m3. For the same compound, the speed of sound ([2]; 303.15 K, 101.33 kPa) was 1259.9 ± 1.5 m/s, the mass density ([2]; 303.15 K, 101.33 kPa) was 909.29 ± 0.24 kg/m3 and the speed of sound ([2]; 308.15 K, 101.33 kPa) was 1242.2 ± 1.5 m/s. For the same compound, the mass density ([2]; 308.15 K, 101.33 kPa) was 905.11 ± 0.24 kg/m3, the speed of sound ([2]; 313.15 K, 101.33 kPa) was 1224.7 ± 1.5 m/s and the mass density ([2]; 313.15 K, 101.33 kPa) was 900.94 ± 0.24 kg/m3.
CCCCC(=O)O [pentanoic acid] gave a refractive index ([1]; 293.15 K) of 1.4084 ± 0.00051, a refractive index ([1]; 298.15 K) of 1.40641 ± 0.00051 and a refractive index ([1]; 303.15 K) of 1.40438 ± 0.00051. It also gave a refractive index ([1]; 308.15 K) of 1.40234 ± 0.00051, a refractive index ([1]; 313.15 K) of 1.4003 ± 0.00051 and a speed of sound ([2]; 293.15 K, 101.33 kPa) of 1234 ± 2.3 m/s. The mass density ([2]; 293.15 K, 101.33 kPa) was 939.41 ± 0.77 kg/m3, the speed of sound ([2]; 298.15 K, 101.33 kPa) was 1216 ± 2.3 m/s and the mass density ([2]; 298.15 K, 101.33 kPa) was 934.85 ± 0.76 kg/m3. It also gave a speed of sound ([2]; 303.15 K, 101.33 kPa) of 1197.9 ± 2.3 m/s, a mass density ([2]; 303.15 K, 101.33 kPa) of 930.29 ± 0.76 kg/m3 and a speed of sound ([2]; 308.15 K, 101.33 kPa) of 1179.9 ± 2.3 m/s. For the same compound, the mass density ([2]; 308.15 K, 101.33 kPa) was 925.73 ± 0.75 kg/m3, the speed of sound ([2]; 313.15 K, 101.33 kPa) was 1162.1 ± 2.3 m/s and the mass density ([2]; 313.15 K, 101.33 kPa) was 921.16 ± 0.75 kg/m3.
Work on CCCCC(=O)O [pentanoic acid] + CCCCCCC(=O)O yielded a refractive index ([3]; 293.15 K, x2 = 0) of 1.4084 ± 0.00051, a refractive index ([3]; 298.15 K, x2 = 0) of 1.40641 ± 0.00051 and a refractive index ([3]; 303.15 K, x2 = 0) of 1.40438 ± 0.00051. It also gave a refractive index ([3]; 308.15 K, x2 = 0) of 1.40234 ± 0.00051, a refractive index ([3]; 313.15 K, x2 = 0) of 1.4003 ± 0.00051 and a speed of sound ([4]; 293.15 K, x2 = 0) of 1234 ± 2.3 m/s. For the same compound, the mass density ([4]; 293.15 K, x2 = 0) was 939.41 ± 0.77 kg/m3, the speed of sound ([4]; 298.15 K, x2 = 0) was 1216 ± 2.3 m/s and the mass density ([4]; 298.15 K, x2 = 0) was 934.85 ± 0.76 kg/m3. It also gave a speed of sound ([4]; 303.15 K, x2 = 0) of 1197.9 ± 2.3 m/s, a mass density ([4]; 303.15 K, x2 = 0) of 930.29 ± 0.76 kg/m3 and a speed of sound ([4]; 308.15 K, x2 = 0) of 1179.9 ± 2.3 m/s. For the same compound, the mass density ([4]; 308.15 K, x2 = 0) was 925.73 ± 0.75 kg/m3, the speed of sound ([4]; 313.15 K, x2 = 0) was 1162.1 ± 2.3 m/s and the mass density ([4]; 313.15 K, x2 = 0) was 921.16 ± 0.75 kg/m3.
